Results reported in ChEMBL document CHEMBL1159019, “A strategy for identifying novel, mechanistically unique inhibitors of topoisomerase I” (J Nat Prod, 1992).

Experiments:
[1] = molecular target: T1, DNA topoisomerase 1 (Homo sapiens, UniProt P11387); assay: Inhibition of human COLO201 cellular topoisomerase-1 mediated plasmid DNA cleavage by electrophoresis in presence of 14 units of enzyme
T1 sequence (P11387 whole entry): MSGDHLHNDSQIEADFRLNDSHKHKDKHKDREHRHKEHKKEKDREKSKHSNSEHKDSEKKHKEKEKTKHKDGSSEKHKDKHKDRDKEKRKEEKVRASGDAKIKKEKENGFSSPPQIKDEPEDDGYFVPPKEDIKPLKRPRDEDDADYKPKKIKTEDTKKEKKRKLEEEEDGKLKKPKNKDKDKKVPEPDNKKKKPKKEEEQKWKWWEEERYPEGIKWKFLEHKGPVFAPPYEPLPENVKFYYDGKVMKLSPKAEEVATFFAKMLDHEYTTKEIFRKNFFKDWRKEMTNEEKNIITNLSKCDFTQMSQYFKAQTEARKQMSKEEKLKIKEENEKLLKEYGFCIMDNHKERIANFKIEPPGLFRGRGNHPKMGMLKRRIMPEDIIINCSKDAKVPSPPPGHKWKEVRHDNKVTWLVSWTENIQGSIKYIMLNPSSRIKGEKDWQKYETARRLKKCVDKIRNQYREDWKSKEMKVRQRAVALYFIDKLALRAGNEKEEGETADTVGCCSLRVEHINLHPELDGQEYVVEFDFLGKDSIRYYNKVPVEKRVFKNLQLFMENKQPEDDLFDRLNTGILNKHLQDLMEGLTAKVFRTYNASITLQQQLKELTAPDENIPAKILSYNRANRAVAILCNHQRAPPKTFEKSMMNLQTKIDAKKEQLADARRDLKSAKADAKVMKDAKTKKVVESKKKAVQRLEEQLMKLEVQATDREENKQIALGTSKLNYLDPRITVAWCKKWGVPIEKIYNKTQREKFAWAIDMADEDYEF

[2] = molecular target: T1, DNA topoisomerase 1; assay: Inhibition of human COLO201 cellular topoisomerase-1 mediated plasmid DNA cleavage by electrophoresis in presence of 70 units of enzyme

| IC50 [1] [nM] | IC50 [2] [nM] | SMILES |
| --- | --- | --- |
| 50 | 100 | O=C(O)C[C@@H]1C(=O)O[C@H]2[C@@H]3OC(=O)c4cc(O)c(O)c(O)c4-c4c(cc(O)c(O)c4O)C(=O)OC[C@H]2O[C@@H](OC(=O)c2cc(O)c(O)c(O)c2)[C@@H]3OC(=O)c2cc(O)c(O)c3c2[C@H]1[C@H](O)C(=O)O3 [CHEBULAGIC ACID] |
|  | 40000 | O=C(O[C@@H]1O[C@@H]2COC(=O)c3cc(O)c(O)c(O)c3-c3c(cc(O)c(O)c3O)C(=O)O[C@H]([C@H]1O)[C@@H]2O)c1cc(O)c(O)c(O)c1 [CORILAGIN] |
